Data from ChEMBL document CHEMBL1137970, “N,N-Dialkylated 4-(4-arylsulfonylpiperazine-1-carbonyl)-benzamidines and 4-((4-arylsulfonyl)-2-oxo-piperazin-1-ylmethyl)-benzamidines as potent factor Xa inhibitors” (Bioorg Med Chem Lett, 2004).

Target: Prothrombin (Homo sapiens, UniProt P00734)
Settings: not given

Structure (SMILES)	IC50 [µM]
CN1CCN=C1c1ccc(C(=O)N2CCN(S(=O)(=O)c3cc4ccc(Cl)cc4s3)CC2)cc1	> 0.01
CN1CCN=C1c1ccc(C(=O)N2CCN(S(=O)(=O)c3cc4ccc(Cl)cc4s3)CC2CC(=O)N2CCOCC2)cc1 (stereo not given)	0.0032

Tested on: not listed separately
Assay: Half life in rats
Type: ADME, organism-based
Settings: rat, in vivo

Structure (SMILES)	half-life [h]
CN1CCN=C1c1ccc(C(=O)N2CCN(S(=O)(=O)c3cc4cc(Cl)ccc4[nH]3)CC2)cc1	7.8

Tested on: not listed separately
Assay: Plasma clearance in rats
Type: ADME, organism-based
Settings: rat

Structure (SMILES)	clearance [mL/min/kg]
CN1CCN=C1c1ccc(C(=O)N2CCN(S(=O)(=O)c3cc4cc(Cl)ccc4[nH]3)CC2)cc1	42.9

Tested on: not listed separately
Assay: Volume of distribution in rats
Type: ADME, organism-based
Settings: rat, in vivo

Structure (SMILES)	Vd [L/kg]
CN1CCN=C1c1ccc(C(=O)N2CCN(S(=O)(=O)c3cc4cc(Cl)ccc4[nH]3)CC2)cc1	28.9

Target: Coagulation factor X (Homo sapiens, UniProt P00742)
Assay: In vitro inhibitory activity against Coagulation factor X was determined
Settings: not given

Coagulation factor X, sequence (P00742 41-179 limits assumed): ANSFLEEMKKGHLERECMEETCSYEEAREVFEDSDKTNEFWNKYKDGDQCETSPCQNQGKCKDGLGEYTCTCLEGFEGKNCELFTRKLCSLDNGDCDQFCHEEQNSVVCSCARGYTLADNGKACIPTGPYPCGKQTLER
Coagulation factor X, sequence (P00742 235-488 limits assumed): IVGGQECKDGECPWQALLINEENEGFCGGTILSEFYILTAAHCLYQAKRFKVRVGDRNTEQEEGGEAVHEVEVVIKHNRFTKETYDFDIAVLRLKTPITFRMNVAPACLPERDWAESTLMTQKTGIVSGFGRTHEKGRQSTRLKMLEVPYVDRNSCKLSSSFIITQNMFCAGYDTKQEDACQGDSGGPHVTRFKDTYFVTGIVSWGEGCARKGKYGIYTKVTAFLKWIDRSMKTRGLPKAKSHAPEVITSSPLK

Structure (SMILES)	IC50 [µM]
CN1CCN=C1c1ccc(C(=O)N2CCN(S(=O)(=O)c3cc4cc(Cl)ccc4[nH]3)CC2CC(=O)N2CCCCC2)cc1 (stereo not given)	0.007
C#CCN(C)C(=O)CC1CN(S(=O)(=O)c2cc3ccc(Cl)cc3s2)CCN1C(=O)c1ccc(C2=NCCN2C)cc1 (stereo not given)	0.019
N=C(c1ccc(C(=O)N2CCN(S(=O)(=O)c3cc4cc(Cl)ccc4[nH]3)CC2)cc1)N1CCCC1	0.084
CN(C)C(=O)CC1CN(S(=O)(=O)c2cc3ccc(Cl)cc3s2)CCN1C(=O)c1ccc(C2=NCCN2C)cc1 (stereo not given)	0.007
CN(C)C(=N)c1ccc(C(=O)N2CCN(S(=O)(=O)c3cc4cc(Cl)ccc4[nH]3)CC2)cc1	0.02
N=C(c1ccc(CN2CCN(S(=O)(=O)c3cc4cc(Cl)ccc4[nH]3)CC2=O)cc1)N1CCCC1	0.24
N=C(c1ccc(CN2CCN(S(=O)(=O)c3cc4ccc(Cl)cc4s3)CC2=O)cc1)N1CCC1	0.011
CN1CCN=C1c1ccc(CN2CCN(S(=O)(=O)c3cc4cc(Cl)ccc4[nH]3)CC2=O)cc1	0.057
CN1CCN=C1c1ccc(CN2CCN(S(=O)(=O)c3cc4ccc(Cl)cc4s3)CC2=O)cc1	0.045
CN1CCN=C1c1ccc(C(=O)N2CCN(S(=O)(=O)c3cc4ccc(Cl)cc4s3)CC2CC(=O)N2CCC(C(=O)O)CC2)cc1 (stereo not given)	0.008
CNC(=O)CC1CN(S(=O)(=O)c2cc3cc(Cl)ccc3[nH]2)CCN1C(=O)c1ccc(C2=NCCN2C)cc1 (stereo not given)	0.011
N=C(c1ccc(CN2CCN(S(=O)(=O)c3cc4cc(Cl)ccc4[nH]3)CC2=O)cc1)N1CCCCC1	0.15
N=C(c1ccc(C(=O)N2CCN(S(=O)(=O)c3cc4ccc(Cl)cc4s3)CC2)cc1)N1CCCCC1	0.071
N=C(c1ccc(CN2CCN(S(=O)(=O)c3cc4ccc(Cl)cc4s3)CC2=O)cc1)N1CCCCC1	0.1
CN(C)C(=N)c1ccc(CN2CCN(S(=O)(=O)c3cc4cc(Cl)ccc4[nH]3)CC2=O)cc1	0.037
CN1CCN=C1c1ccc(C(=O)N2CCN(S(=O)(=O)c3cc4cc(Cl)ccc4[nH]3)CC2CC(=O)N2CCOCC2)cc1 (stereo not given)	0.011
CN1CCN=C1c1ccc(C(=O)N2CCN(S(=O)(=O)c3cc4cc(Cl)ccc4[nH]3)CC2C(=O)O)cc1 (stereo not given)	0.012
CN1CCN=C1c1ccc(C(=O)N2CCN(S(=O)(=O)c3cc4cc(Cl)ccc4[nH]3)CC2CC(=O)N2CCCC2)cc1 (stereo not given)	0.007
N=C(c1ccc(CN2CCN(S(=O)(=O)c3cc4cc(Cl)ccc4[nH]3)CC2=O)cc1)N1CCC1	0.008
COC(=O)C1CN(S(=O)(=O)c2cc3cc(Cl)ccc3[nH]2)CCN1C(=O)c1ccc(C2=NCCN2C)cc1 (stereo not given)	0.027
N=C(c1ccc(CN2CCN(S(=O)(=O)c3cc4ccc(Cl)cc4s3)CC2=O)cc1)N1CCCC1	0.14
CN1CCN=C1c1ccc(C(=O)N2CCN(S(=O)(=O)c3cc4cc(Cl)ccc4[nH]3)CC2CC(=O)N2CCN(c3ccncc3)CC2)cc1 (stereo not given)	0.008
C#CCN(C)C(=O)CC1CN(S(=O)(=O)c2cc3cc(Cl)ccc3[nH]2)CCN1C(=O)c1ccc(C2=NCCN2C)cc1 (stereo not given)	0.014
COC(=O)C1CCN(C(=O)CC2CN(S(=O)(=O)c3cc4ccc(Cl)cc4s3)CCN2C(=O)c2ccc(C3=NCCN3C)cc2)CC1 (stereo not given)	0.008
COC(=O)CC1CN(S(=O)(=O)c2cc3cc(Cl)ccc3[nH]2)CCN1C(=O)c1ccc(C2=NCCN2C)cc1 (stereo not given)	0.003
CN1CCN=C1c1ccc(C(=O)N2CCN(S(=O)(=O)c3cc4ccc(Cl)cc4s3)CC2CC(=O)N2CCOCC2)cc1 (stereo not given)	0.015
CN(C)C(=N)c1ccc(CN2CCN(S(=O)(=O)c3cc4ccc(Cl)cc4s3)CC2=O)cc1	0.03
N=C(c1ccc(C(=O)N2CCN(S(=O)(=O)c3cc4cc(Cl)ccc4[nH]3)CC2)cc1)N1CCCCC1	0.12
CCN(C)C(=N)c1ccc(C(=O)N2CCN(S(=O)(=O)c3cc4cc(Cl)ccc4[nH]3)CC2)cc1	0.027
CN(C)C(=O)CC1CN(S(=O)(=O)c2cc3cc(Cl)ccc3[nH]2)CCN1C(=O)c1ccc(C2=NCCN2C)cc1 (stereo not given)	0.01

Now from value to molecule:

IC50 [µM]	Structure (SMILES)
0.029	CN1CCN=C1c1ccc(C(=O)N2CCN(S(=O)(=O)c3cc4ccc(Cl)cc4s3)CC2CC(=O)O)cc1 (stereo not given)
0.041	CN1CCN=C1c1ccc(C(=O)N2CCN(S(=O)(=O)c3cc4cc(Cl)ccc4[nH]3)CC2CC(=O)O)cc1 (stereo not given)
0.018	CN1CCN=C1c1ccc(C(=O)N2CCN(S(=O)(=O)c3cc4cc(Cl)ccc4[nH]3)CC2CC(N)=O)cc1 (stereo not given)
0.59	CN1CCN=C1c1ccc(C(=O)N2CCN(S(=O)(=O)c3cc4ccc(Cl)cc4[nH]3)CC2)cc1
0.009	CN1CCN=C1c1ccc(C(=O)N2CCN(S(=O)(=O)c3cc4ccc(Cl)cc4s3)CC2)cc1
0.27	CN1CCN=C1c1ccc(C(=O)N2CCN(S(=O)(=O)c3cc4cc(Cl)ccc4s3)CC2)cc1
0.16	N=C(c1ccc(C(=O)N2CCN(S(=O)(=O)c3ccc4cc(Br)ccc4c3)CC2)cc1)N1CCCCC1
0.006	CN1CCN=C1c1ccc(C(=O)N2CCN(S(=O)(=O)c3cc4ccc(Cl)cc4s3)CC2CC(=O)N2CCCC2)cc1 (stereo not given)
0.008	CN1CCN=C1c1ccc(C(=O)N2CCN(S(=O)(=O)c3cc4ccc(Cl)cc4s3)CC2CC(=O)N2CCN(c3ccncc3)CC2)cc1 (stereo not given)
0.024	N=C(c1ccc(C(=O)N2CCN(S(=O)(=O)c3cc4cc(Cl)ccc4[nH]3)CC2)cc1)N1CCC1
0.036	CCN1CCN=C1c1ccc(C(=O)N2CCN(S(=O)(=O)c3cc4ccc(Cl)cc4s3)CC2)cc1
0.39	N=C(c1ccc(C(=O)N2CCN(S(=O)(=O)c3ccc4cc(Br)ccc4c3)CC2)cc1)N1CCCC1
0.64	N=C(c1ccc(C(=O)N2CCN(S(=O)(=O)c3ccc4cc(Br)ccc4c3)CC2)cc1)N1CCOCC1
0.064	N=C(N)c1ccc(C(=O)N2CCN(S(=O)(=O)c3ccc4cc(Br)ccc4c3)CC2)cc1
0.067	CCN1CCN=C1c1ccc(C(=O)N2CCN(S(=O)(=O)c3ccc4cc(Br)ccc4c3)CC2)cc1
0.013	COC(=O)CC1CN(S(=O)(=O)c2cc3ccc(Cl)cc3s2)CCN1C(=O)c1ccc(C2=NCCN2C)cc1 (stereo not given)

IC50 [µM]	Structure (SMILES)
0.027	CN(C)C(=N)c1ccc(C(=O)N2CCN(S(=O)(=O)c3cc4ccc(Cl)cc4s3)CC2)cc1
0.01	CN1CCN=C1c1ccc(C(=O)N2CCN(S(=O)(=O)c3cc4ccc(Cl)cc4s3)CC2CC(=O)N2CCC2)cc1 (stereo not given)
0.43	CN1CCCN=C1c1ccc(C(=O)N2CCN(S(=O)(=O)c3ccc4cc(Br)ccc4c3)CC2)cc1
> 11	CN1CCN=C1c1ccc(C(=O)N2CCN(C(=O)c3cc4cc(Cl)ccc4[nH]3)CC2)cc1
1.3	O=C(c1ccc(C2=NCCCN2)cc1)N1CCN(S(=O)(=O)c2ccc3cc(Br)ccc3c2)CC1
0.025	N=C(c1ccc(C(=O)N2CCN(S(=O)(=O)c3cc4ccc(Cl)cc4s3)CC2)cc1)N1CCC1
0.09	CCN(C)C(=N)c1ccc(C(=O)N2CCN(S(=O)(=O)c3cc4ccc(Cl)cc4s3)CC2)cc1
0.006	CN1CCN=C1c1ccc(C(=O)N2CCN(S(=O)(=O)c3cc4ccc(Cl)cc4s3)CC2CC(=O)N2CCCCC2)cc1 (stereo not given)
0.53	O=C(c1ccc(C2=NCCN2)cc1)N1CCN(S(=O)(=O)c2ccc3cc(Br)ccc3c2)CC1
0.23	CNC(=N)c1ccc(C(=O)N2CCN(S(=O)(=O)c3ccc4cc(Br)ccc4c3)CC2)cc1
0.012	CCN1CCN=C1c1ccc(C(=O)N2CCN(S(=O)(=O)c3cc4cc(Cl)ccc4[nH]3)CC2)cc1
0.23	CN(C)C(=N)c1ccc(C(=O)N2CCN(S(=O)(=O)c3ccc4cc(Br)ccc4c3)CC2)cc1
0.07	N=C(c1ccc(C(=O)N2CCN(S(=O)(=O)c3cc4ccc(Cl)cc4s3)CC2)cc1)N1CCCC1
0.031	CN1CCN=C1c1ccc(C(=O)N2CCN(S(=O)(=O)c3ccc4cc(Br)ccc4c3)CC2)cc1
0.005	CN1CCN=C1c1ccc(C(=O)N2CCN(S(=O)(=O)c3cc4cc(Cl)ccc4[nH]3)CC2CC(=O)N2CCC2)cc1 (stereo not given)

Target: Kallikrein-1 (Homo sapiens, UniProt P06870)
Assay: In vitro inhibitory activity against kallikrein was determined
Settings: not given

Kallikrein-1, sequence (P06870 whole entry): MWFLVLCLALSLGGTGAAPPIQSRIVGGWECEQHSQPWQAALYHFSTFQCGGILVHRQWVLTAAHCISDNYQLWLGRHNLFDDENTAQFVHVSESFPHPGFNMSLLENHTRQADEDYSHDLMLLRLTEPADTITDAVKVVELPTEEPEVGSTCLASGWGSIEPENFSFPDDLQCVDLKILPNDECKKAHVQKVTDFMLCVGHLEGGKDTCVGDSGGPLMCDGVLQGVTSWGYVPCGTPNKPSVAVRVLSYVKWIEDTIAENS

Structure (SMILES)	IC50 [µM]
CN1CCN=C1c1ccc(C(=O)N2CCN(S(=O)(=O)c3cc4cc(Cl)ccc4[nH]3)CC2)cc1	5.8

Tested on: not listed separately
Assay: Oral bioavailability in rat
Type: ADME, organism-based
Settings: in vivo

Structure (SMILES)	bioavailability [%]
CN1CCN=C1c1ccc(C(=O)N2CCN(S(=O)(=O)c3cc4cc(Cl)ccc4[nH]3)CC2)cc1	1.4
CN(C)C(=N)c1ccc(CN2CCN(S(=O)(=O)c3cc4cc(Cl)ccc4[nH]3)CC2=O)cc1	4.1
CN(C)C(=N)c1ccc(CN2CCN(S(=O)(=O)c3cc4ccc(Cl)cc4s3)CC2=O)cc1	< 1
